Earlier results in publication PMC11730002 (Turkish Journal of Pharmaceutical Sciences, 2025).

What was measured:
[1] = target: T1, pancreatic lipase (Sus scrofa, UniProt P00591); conditions: read-out: Pancreatic lipase inhibition IC50; in vitro study
T1 sequence (P00591 1-450): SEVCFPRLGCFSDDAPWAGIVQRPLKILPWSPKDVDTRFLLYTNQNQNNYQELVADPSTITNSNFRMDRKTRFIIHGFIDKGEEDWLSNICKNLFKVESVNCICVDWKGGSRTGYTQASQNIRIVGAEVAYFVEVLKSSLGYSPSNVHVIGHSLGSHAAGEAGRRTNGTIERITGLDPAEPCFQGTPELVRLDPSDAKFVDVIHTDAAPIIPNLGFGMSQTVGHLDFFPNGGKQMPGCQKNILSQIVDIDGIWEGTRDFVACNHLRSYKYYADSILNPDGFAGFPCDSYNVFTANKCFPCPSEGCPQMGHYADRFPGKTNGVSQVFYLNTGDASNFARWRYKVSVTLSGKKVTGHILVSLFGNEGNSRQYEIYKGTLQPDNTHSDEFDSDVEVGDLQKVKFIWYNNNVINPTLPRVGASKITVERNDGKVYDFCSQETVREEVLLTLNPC

[2] = target: lipase; conditions: read-out: Lipase inhibitory activity IC50

IC50 [1]: 347 µM | IC50 [2]: 62.8 ± 2.7 µM
SMILES: O=C(/C=C/c1ccc(O)c(O)c1)O[C@H](Cc1ccc(O)c(O)c1)C(=O)O [Rosmarinic acid]
